Measurements as given in patent US11000033B2, “Ketone or oxime compound, and herbicide” (NISSAN CHEMICAL CORPORATION, priority 2014, dated 2021).

Experiments:
Assay type in all cases: in vivo
[1] = system: corn; assay: Test Example 5: effect on crop by foliage application, plastic box (symbol c); conditions: 320 g/ha, 3 weeks after application
In short: (§1)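 A greenhouse held between 25° C. and 30° C. was used to grow plants sown spot-wise, beneath ~1.5 cm of soil, in boxes of sterilized diluvial soil.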

[2] = system: soybean; assay: Test Example 5: effect on crop by foliage application, plastic box (symbol d); conditions: 320 g/ha, 3 weeks after application
In short: as §1

[3] = system: Digitaria ciliaris; assay: Test Example 4: herbicidal effect by soil treatment (symbol F)
In short: (§2)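 Seeds were sown in sterilized diluvial soil, covered with about 1.5 cm of soil, and the soil surface was sprayed with a water-diluted emulsion of the compound at a predetermined rate. Plants grew in a greenhouse at 25° C. to 30° C.; effects were scored visually 3 weeks after application.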

[4] = system: transplanted rice plant; assay: Test Example 1: effect on crop, application before weed generation in submerged conditions (symbol a); conditions: application herbicide amount 320 g/ha
In short: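 Alluvial soil pots flooded to 4 cm water, sown with Echinochloa oryzacola, Scirpus juncoides and Monochoria vaginalis, then transplanted with 2.5 leaf stage rice seedlings; pre-emergence application. Greenhouse 25° C. to 30° C.; scored 0–5 by herbicidal ratio 3 weeks after application.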

[5] = system: directly sowed rice plant; assay: Test Example 3: effect on crop by foliage application, Wagner pot (symbol b); conditions: application herbicide amount 320 g/ha
In short: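 Steps: fill a 1/10000-are Wagner pot with alluvial soil; add water and mix to submerge at 0.1–0.5 cm depth; sow rice plus Echinochloa crus-galli var. crus-galli, Leptochloa chinensis and Cyperus difformis; grow in a 25–30 °C greenhouse.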

[6] = system: Echinochloa crus-galli var. crus-galli; assay: Test Example 3: herbicidal effect by foliage application, Wagner pot (symbol H); conditions: application herbicide amount 320 g/ha
In short: (§3)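 Seeds sown in alluvial soil kept under 0.1–0.5 cm water, greenhouse 25–30 °C; 14 d growth. Leaves treated by small sprayer with water-diluted emulsion at a predetermined rate. Effect graded by set scale, 3 weeks.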

[7] = system: Echinochloa oryzacola Vasing.; assay: Test Example 2: herbicidal activity, application during weed generation in submerged conditions (symbol A); conditions: Table 23; application herbicide amount 320 g/ha; grade 0-5 by criteria of Test Example 1
In short: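 Each pot contained alluvial soil under 4 cm of water with seeds of all three weeds sown together. Following growth at 25° C. to 30° C. to the one- to two-leaf stage, the floodwater received diluted emulsion at a predetermined amount; visual assessment followed at 3 weeks.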

[8] = system: Lolium multiflorum Lam.; assay: Test Example 4: herbicidal effect by soil treatment (symbol K)
In short: as §2

[9] = system: Leptochloa chinensis; assay: Test Example 3: herbicidal effect by foliage application, Wagner pot (symbol D); conditions: application herbicide amount 320 g/ha
In short: as §3

[10] = system: beet; assay: Test Example 4: effect on crop by soil treatment (symbol f); conditions: for f: beet, effect grade on crop: 320 g/ha
In short: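 Steps: fill box with sterilized diluvial soil; sow seed spot-like; cover with ~1.5 cm soil; grow in greenhouse (25° C. to 30° C.).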

[11] = system: Chenopodium album; assay: Test Example 4: herbicidal effect by soil treatment (symbol O)
In short: as §2

[12] = system: Monochoria vaginalis; assay: Test Example 1: herbicidal activity, application before weed generation in submerged conditions (symbol C); conditions: application herbicide amount 320 g/ha
In short: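 Compound emulsion was diluted to a set herbicide amount and applied to the water surface on the sowing day, into submerged (4 cm) alluvial-soil pots sown with mixed weed seeds and transplanted 2.5-leaf rice. Pots were held in a 25–30 °C greenhouse, and weeds were scored 0–5 by herbicidal ratio after 3 weeks.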

[13] = application herbicide amount 320 g/ha

SMILES | c: corn, effect on crop (criteria 0-5) [1] | d: soybean, effect on crop (criteria 0-5) [2] | F: Digitaria ciliaris, herbicidal effect grade ([3]; 320 g/ha) | Effect grade on crop, a: transplanted rice plant [4] | effect on crop b (directly sowed rice plant), grade 0-5 [5] | herbicidal effect on H (Echinochloa crus-galli var. crus-galli), grade 0-5 [6] | Herbicidal effect grade, A: Echinochloa oryzacola Vasing. [7] | K: Lolium multiflorum Lam., herbicidal effect grade ([8]; 320 g/ha) | herbicidal effect on D (Leptochloa chinensis), grade 0-5 [9] | f: beet, effect grade on crop [10] | O: Chenopodium album, herbicidal effect grade ([11]; 320 g/ha) | Herbicidal effect grade, C: Monochoria vaginalis [12] | further results
CC(CC1CC(O)=C(c2c(C)cc(C)cc2C)C1=O)=NOCc1ccc(F)cc1 (stereo not drawn) [1-136] | 3 (Herbicidal ratio of 40% or higher and lower than 70%) | 1 (Herbicidal ratio of 5% or higher and lower than 20%) | 5 (Herbicidal ratio of 90% or more (almost completely withered)) | 5 (Herbicidal ratio of 90% or more (almost completely withered)) | 5 (Herbicidal ratio of 90% or more (almost completely withered)) | 5 (Herbicidal ratio of 90% or more (almost completely withered)) | 4 (Herbicidal ratio of 70% or higher and lower than 90%) | 5 (Herbicidal ratio of 90% or more (almost completely withered)) | 2 (Herbicidal ratio of 20% or higher and lower than 40%) | 0 (Herbicidal ratio of 5% or lower (almost no effect)) | 0 (Herbicidal ratio of 5% or lower (almost no effect)) | 5 (Herbicidal ratio of 90% or more (almost completely withered)) | 
CCC(CC1CC(O)=C(c2c(C)cc(Br)cc2OC)C1=O)=NOC (mixture of isomers) [13-001] |  |  |  |  |  |  | 5 (Herbicidal ratio of 90% or more (almost completely withered)) |  |  |  |  |  | c: corn, effect on crop grade [1]: 5 (Herbicidal ratio of 90% or more (almost completely withered)); d: soybean, effect on crop grade [2]: 0 (Herbicidal ratio of 5% or lower (almost no effect)); F: Digitaria ciliaris, herbicidal effect grade [3, 13]: 5 (Herbicidal ratio of 90% or more (almost completely withered)); a (transplanted rice plant) effect on crop grade [4]: 5 (Herbicidal ratio of 90% or more (almost completely withered)); b (directly sowed rice plant) effect on crop grade ([5]; Table 24): 5 (Herbicidal ratio of 90% or more (almost completely withered)); H (Echinochloa crus-galli var. crus-galli) herbicidal effect grade ([6]; Table 24): 5 (Herbicidal ratio of 90% or more (almost completely withered)); K: Lolium multiflorum Lam., herbicidal effect grade [8, 13]: 5 (Herbicidal ratio of 90% or more (almost completely withered)); D (Leptochloa chinensis) herbicidal effect grade ([9]; Table 24): 5 (Herbicidal ratio of 90% or more (almost completely withered)); f: beet, effect on crop grade [10, 13]: 0 (Herbicidal ratio of 5% or lower (almost no effect)); O: Chenopodium album, herbicidal effect grade [11, 13]: 0 (Herbicidal ratio of 5% or lower (almost no effect)); C (Monochoria vaginalis) herbicidal effect grade [12]: 0 (Herbicidal ratio of 5% or lower (almost no effect))
CON=C(C)CC1CC(OS(=O)(=O)N(C)C)=C(c2c(C)cc(C)cc2C)C1=O (stereo not drawn) [1-122] | 5 (Herbicidal ratio of 90% or more (almost completely withered)) | 4 (Herbicidal ratio of 70% or higher and lower than 90%) | 2 (Herbicidal ratio of 20% or higher and lower than 40%) | 5 (Herbicidal ratio of 90% or more (almost completely withered)) | 5 (Herbicidal ratio of 90% or more (almost completely withered)) | 5 (Herbicidal ratio of 90% or more (almost completely withered)) | 5 (Herbicidal ratio of 90% or more (almost completely withered)) | 5 (Herbicidal ratio of 90% or more (almost completely withered)) | 5 (Herbicidal ratio of 90% or more (almost completely withered)) | 0 (Herbicidal ratio of 5% or lower (almost no effect)) | 0 (Herbicidal ratio of 5% or lower (almost no effect)) | 0 (Herbicidal ratio of 5% or lower (almost no effect)) | 
